Test results as given in ChEMBL document CHEMBL1128626, “The synthesis and biological activity of enediyne minor groove binding hybrids” (Bioorg Med Chem Lett, 1995).

Experiments:
[1] = system: Nucleic Acid; test: Concentration of drug which induced cleavage of 50% of PM2 supercoiled DNA in the presence of beta-mercaptoethanol; assay type: functional
[2] = system: HCT-116; test: Cytotoxicity against HCT116 human colon tumor cell line; assay type: functional, cell-based
[3] = system: Nucleic Acid; test: Concentration of drug which induced cleavage of 50% of PM2 supercoiled DNA in the absence of beta-mercaptoethanol; assay type: functional

C=C(OC)C(=O)Nc1cc(OC)c(OC)cc1C(=O)O[C@H]1C[C@H](O[C@@H]2C(=O)C(NC(=O)OC)=C3/C(=C\CSSSC)[C@]2(O)C#C/C=C\C#C[C@@H]3O[C@@H]2O[C@H](C)[C@@H](NO[C@H]3C[C@H](O)[C@H](SC)[C@@H](C)O3)[C@H](O)[C@H]2O[C@H]2C[C@H](OC)[C@@H](NC(C)C)CO2)O[C@@H](C)[C@H]1O [ESPERAMICIN A1]
Cleavage [1]: < 1 µM | IC50 [2]: 1e-06 µM | Cleavage [3]: 10 µM

O=C1C2=CCC[C@@]1(O)C#C/C=C\C#C[C@@H]2O
Cleavage [1]: 100 µM | Cleavage [3]: 1000 µM

Cn1cc(NC(=O)Cc2ccc(CO[C@H]3C#C/C=C\C#C[C@]4(O)CCC=C3C4=O)cc2)cc1C(=O)Cc1cc(C(=O)NCCC(=N)N)n(C)c1
Cleavage [1]: < 1 µM | IC50 [2]: 640 µM | Cleavage [3]: 10 µM

Cn1cc(NC(=O)c2cc(NC(=O)Cc3ccc(COCO[C@@]45C#C/C=C\C#C[C@H](O)C(=CCC4)C5=O)cc3)cn2C)cc1C(=O)NCCC(=N)N
Cleavage [1]: 10 µM | IC50 [2]: 7.4 µM | Cleavage [3]: 100 µM
